Reference: patent EP1282414B1, “FELBAMATE DERIVED COMPOUNDS FOR TREATING NEUROPATHIC PAIN” (University of Virginia Patent Foundation, priority 2000, dated 2001)

How the values were obtained:
[1] = Minimal neurotoxicity (TOX), positional sense and gait and stance tests, rats p.o.; assay type: in vivo; conditions: in vivo, po; rat
Source text: (§1) The fluoro derivatives synthesized were submitted to the National Institute of Neurological Disorders and Stroke (NINDS) for evaluation in a standard panel of assays. Two convulsant tests (MES and scMET), and a toxicity screen (rotorod in mice, positional sense and gait in rats) were employed for evaluating the compounds activity as neuroprotecting agents. These testing procedures are described in detail in Molecular and Cellular Targets for Anti-epileptic Drugs, eds. […] The felbamate derivatives were evaluated for anticonvulsant activity following intraperitoneal (i.p.) administration in mice and oral administration in rats.
(§2) Rats are examined for behavioral toxicity by the positional sense test and a gait and stance test. […] In the gait and stance test, neurotoxicity is indicated by a circular or zigzag gait, ataxia, abnormal spread of the legs, abnormal posture, tremor hyperactivity, lack of exploratory behavior, somnolence, stupor or catalepsy. […]

rats = assay: as above; assay type: in vivo; conditions: for TOX, number of animals exhibiting toxic effects / total number of animals tested: rat p.o., 30 mg/kg
Source text: as §1, §2

seizures = assay: NINDS standard panel of assays (MES, scMET, toxicity screen), overall; assay type: in vivo; conditions: relative to felbamate
Source text: (§3) The fluoro derivatives synthesized were submitted to the National Institute of Neurological Disorders and Stroke (NINDS) for evaluation in a standard panel of assays. Two convulsant tests (MES and scMET), and a toxicity screen (rotorod in mice, positional sense and gait in rats) were employed for evaluating the compounds activity as neuroprotecting agents. These testing procedures are described in detail in Molecular and Cellular Targets for Anti-epileptic Drugs, eds. G. Avanzini, G. Regesta, P. Tanganelli, M. Avoli, 1997, John Libbey & Company Ltd, pp 191-198. The felbamate derivatives were evaluated for anticonvulsant activity following intraperitoneal (i.p.) administration in mice and oral administration in rats.

[2] = Minimal neurotoxicity (TOX), rotorod test, mice i.p.; assay type: in vivo; conditions: in vivo, ip; mouse, I.P.
Source text: as §1, with “rats. […]” for “rats.”

mice [3] = assay: as above; assay type: in vivo; conditions: for TOX, number of animals exhibiting toxic effects / total number of animals tested: mice i.p.
Source text: as §1, with “rats. […]” for “rats.”

[4] = test system: MES-induced seizure spread; assay: Maximal Electroshock Seizure (MES) test, mice oral; assay type: in vivo; conditions: Mus musculus, oral administration
Description: (§4) The MES test is a model for generalized tonic-clonic seizures and is used to identify compounds which prevent seizure spread. The behavioral and electrographic seizures generated in this model are consistent with the human disorder. In the MES test, an electrical stimulus of 0.2 s in duration (50 mA in mice and 150 mA in rat at 60Hz) was delivered via corneal electrodes primed with an electrolyte solution containing an anesthetic agent. Mice were tested at 30 minutes and 4 hours following doses of 30, 100 and 300 mg/kg of test compound. Rats were tested at time intervals between 0.25 and 4 hours following a standard oral dose of 30 mg/kg. Abolition of the hindlimb tonic extensor component indicates the test compound's ability to inhibit MES-induced seizure spread.
(§5) Toxicity across time doe not occur until dosages of 300mg/kg. […] Quantitative results obtained for fluoro felbamate 12 in mice indicated a MES ED50 of approximately 20 mg/kg with a safety ratio of at least five (see Table 3). Results obtained for oral administration of fluoro felbamate 12 to rats indicated a MES ED50 of about 3 mg/kg with no toxicity at doses up to 500 mg/kg.

mice [5] = assay: Toxicity, mice oral; assay type: in vivo; conditions: oral administration
Description: Toxicity induced by a compound is detected in mice using the standardized rotorod test described by Dunham & Miya (1957). Untreated control mice, when placed on a 6 r.p.m. rotation rod, can maintain their equilibrium for a prolonged period of time.
as §5

[6] = test system: MES-induced seizure spread; assay: Maximal Electroshock Seizure (MES) test, rats p.o.; assay type: in vivo, rat; conditions: for MES, number of animals protected / total number of animals tested: rat p.o., 30 mg/kg
Source text: as §3, §4
For the MES and scMET tests the data is presented in the form of the number of animals protected by the administered compound / total number of animals tested. […] Qualitative data was obtained for fluoro felbamate 12 (Tables 1 and 2A), fluoro monocarbamate felbamate 13 (Tables 1 and 2B), and fluorodioxo 16 (Tables 1 and 2C) and for cyclic felbamate 21 (Tables 5 and 6B) and cyclic monocarbamate 22 (Tables 5 and 6A). More extensive quantitative data was also obtained for fluoro felbamate 12 in mice (Table 3) and rats (Table 4).

NC(=O)OCC(F)(COC(N)=O)c1ccccc1 [fluoro felbamate, 2-Fluoro-2-phenyl-1,3-propanediol dicarbamate]
ED50 [1]: > 500 mg/kg
TOX, number of animals exhibiting toxic effects / total number of animals tested (rats; 0.25h): 0/4
TOX, number of animals exhibiting toxic effects / total number of animals tested (rats; 0.5h): 0/4
TOX, number of animals exhibiting toxic effects / total number of animals tested (rats; 1.0h): 0/4
TOX, number of animals exhibiting toxic effects / total number of animals tested (rats; 2.0h): 0/4
TOX, number of animals exhibiting toxic effects / total number of animals tested (rats; 4.0h): 1/4
no toxicity at doses up to (rats; rats, oral administration): up to 500 mg/kg
times more active than felbamate (seizures): 5-10 times
ED50 [2]: 115 mg/kg
TOX, number of animals exhibiting toxic effects / total number of animals tested (mice [3]; 3 mg/kg, 0.5h): 0/4
TOX, number of animals exhibiting toxic effects / total number of animals tested (mice [3]; 3 mg/kg, 4.0h): 0/4
TOX, number of animals exhibiting toxic effects / total number of animals tested (mice [3]; 10 mg/kg, 0.5h): 0/4
TOX, number of animals exhibiting toxic effects / total number of animals tested (mice [3]; 10 mg/kg, 4.0h): 0/4
TOX, number of animals exhibiting toxic effects / total number of animals tested (mice [3]; 30 mg/kg, 0.5h): 1/4
TOX, number of animals exhibiting toxic effects / total number of animals tested (mice [3]; 30 mg/kg, 4.0h): 0/2
TOX, number of animals exhibiting toxic effects / total number of animals tested (mice [3]; 100 mg/kg, 0.5h): 4/8
TOX, number of animals exhibiting toxic effects / total number of animals tested (mice [3]; 100 mg/kg, 4.0h): 0/4
TOX, number of animals exhibiting toxic effects / total number of animals tested (mice [3]; 300 mg/kg, 0.5h): 4/4
TOX, number of animals exhibiting toxic effects / total number of animals tested (mice [3]; 300 mg/kg, 4.0h): 2/2
safety ratio (mice [3]; mice, i.p., toxicity relative to MES ED50): at least five
ED50 [4]: ~27 mg/kg
no toxicity at doses up to (mice [5]): up to 218 mg/kg
ED50 ([6]; Rattus norvegicus, po, read-out: MES ED50, rat, p.o.): ~3 mg/kg
MES, number of animals protected / total number of animals tested ([6]; 0.25h): 2/4
MES, number of animals protected / total number of animals tested ([6]; 0.5h): 4/4
MES, number of animals protected / total number of animals tested ([6]; 1.0h): 4/4
MES, number of animals protected / total number of animals tested ([6]; 2.0h): 4/4
MES, number of animals protected / total number of animals tested ([6]; 4.0h): 4/4
